The results in this text go back to patent US10206988B2, “Xenoantigen-displaying anti-cancer vaccines and method of making” (The University of Toledo, priority 2012, dated 2019).

For one test, the system named is U266 cells. Briefly: Tumor cell staining (FACS). In kind it is cell-based, human. The note with it: 0.5 μg antibody, FITC goat anti-mouse IgG+IgM. The protocol:
U266 cells (American Type Culture Collection, Manassas, Va.), were cultured in RPMI 1640 with 15% fetal calf serum (FCS). Cells were stained with purified mouse anti-human MUC1 antibodies (CD227, 0.5 μg), non-immune BALB/c mice serum (1/5 dilution) and group B2 mice serum (1/5 dilution). The cells were then stained with FITC-conjugated goat anti-mouse IgG+IgM (0.5 μg) and fluorescence was quantified with a BD FACS Calibur.
These cells express MUC1 on their surface as shown by binding with mouse anti-human MUC1 antibodies (CD 227).

Test [1] deals with female BALB/c mice. In words: Anti-Rha antibody generation with Rha-Ficoll/Alum (ELISA against Rha-BSA). The format is in vivo. The conditions noted are these: day 66 sera. The protocol:
The 20 female BALB/c mice used for this study were divided into four groups A1, A2, B1, and B2, containing 5 mice each. Groups A1 and B1 served as the control groups and were not immunized. Groups A2 and B2 were injected subcutaneously (day 0) with a 100 μL subcutaneous injections Rha-Ficoll/Alum on days 14, 28, 42, and 56 (100 μg of Rha-Ficoll per mouse, each boost). The mice in each group A1, A2, B1, and B2 were bled on day 66 and the collected sera were tested for anti-Rha antibodies.
96 well plates (Immulon 4 HBX) were coated with Rha-BSA conjugate (6) (2 μg/mL) in 0.01 M PBS and incubated overnight at 4° C. The plates were washed 5 times with PBS containing 0.1% Tween-20. Blocking was achieved by incubating the plates for 1 h at room temperature with BSA in 0.01 M PBS (1 mg/mL). The plates were then washed 5 times and incubated for 1 h with serum dilutions in PBS. Unbound antibody in the serum was removed by washing and the plates were incubated for 1 h at room temperature with Horseradish Peroxidase (HRP) goat anti-mouse IgG+IgM (Jackson Immunoresearch Laboratories) diluted 5000 times in PBS/BSA. The plates were washed with TMB (3,3′,5,5′-tetramethylbenzidine). One component HRP microwell substrate (Bio FX, Owings Mills, Md.) was added and allowed to react for 10 mins. Absorbances were recorded at 620 nm and were plotted against log10 [1/serum dilution]. […]

Test [2] deals with female BALB/c mice. Briefly: Comparison of anti-Rha antibody titers and isotypes generated against Rha-Ficoll and Rha-OVA (screening against Rha-BSA). The format is in vivo. The note with it: isotype distribution, sera screened against Rha-BSA. The protocol:
96 well plates (Immulon 4 HBX) were coated with Rha-BSA conjugate (6) (2 μg/mL) in 0.01 M PBS and incubated overnight at 4° C. The plates were washed 5 times with PBS containing 0.1% Tween-20. Blocking was achieved by incubating the plates for 1 h at room temperature with BSA in 0.01 M PBS (1 mg/mL). The plates were then washed 5 times and incubated for 1 h with serum dilutions in PBS. Unbound antibody in the serum was removed by washing and the plates were incubated for 1 h at room temperature with Horseradish Peroxidase (HRP) goat anti-mouse IgG+IgM (Jackson Immunoresearch Laboratories) diluted 5000 times in PBS/BSA. The plates were washed with TMB (3,3′,5,5′-tetramethylbenzidine). One component HRP microwell substrate (Bio FX, Owings Mills, Md.) was added and allowed to react for 10 mins. Absorbances were recorded at 620 nm and were plotted against log10 [1/serum dilution].
Two groups of five female BALB/c mice each were immunized on day 0 with Rha-Ficoll/Alum adjuvant (group A) or Rha-OVA/complete Freund's adjuvant (CFA) (group B). The mice were boosted three more times on days 14, 28, and 42 with either Rha-Ficoll/Alum (group A) or rha-OVA/incomplete Freund's adjuvant (ICF) (group B). Sera were collected separately from groups A and B after the third boost and the anti-Rha antibodies in the sera from the two groups of mice were isotyped by screening against Rha-BSA. […]

On to “CD 227: purified mouse anti-human CD227 (anti-human MUC1) from BD-biosciences”, for which the “binding to MUC1 on U266 human leukemia cells” value in the test on U266 cells is “binding”.

On to “2-Aminoethyl-α-L-Rhamnopyranoside-Ficoll Conjugate [Rha-Ficoll]”, for which, in the test on female BALB/c mice [1], the “anti-Rha antibody titers in groups A2 and B2 relative to control groups” value worked out at 25 fold. Further, in the test with female BALB/c mice [2], the “IgG3 share of anti-Rha antibodies” value worked out at 48% and the “IgM share of anti-Rha antibodies” value amounted to 25%.
